The record followed here is ChEMBL document CHEMBL1135726, “Novel antagonists acting at the P2Y(1) purinergic receptor: synthesis and conformational analysis using potentiometric and nuclear magnetic resonance titration techniques” (J Med Chem, 2002).

Experiment [1] concerns the target P2Y purinoceptor 1 (Homo sapiens, UniProt P47900). The experiment in a line: pA2 value was evaluated against P2Y purinoceptor 1. The following applies: read-out: pA2 (converted).
For experiment [2], the species on record is Homo sapiens. The experiment in a line: Inhibitory concentration required to inhibit intracellular [Ca2+] rise induced in washed human platelets by 5 uM ADP. In kind it is functional.
Experiment [3] has as its target P2X purinoceptor 4 (Rattus norvegicus) (UniProt P51577). As to the kind of experiment: KB value was evaluated at the rat P2X purinoceptor 4 (P2X4); IA menas inactive.
Experiment [4] deals with P2X purinoceptor 1 (Rattus norvegicus) (UniProt P47824). As to the kind of experiment: Affinity at P2X purinoceptor 1 (P2X1) and the value is expressed as IC50.
Experiment [5] deals with P2X purinoceptor 2 (Rattus norvegicus) (UniProt P49653). The experiment in a line: KB value was evaluated at the rat P2X purinoceptor 2 (P2X2); IA menas inactive.

Structures are written as SMILES. pIC50: −log10 of the molar value. Activity calls are given as the source filed them. No cut-off for these calls is given here.

Sequence of P2Y purinoceptor 1 (P47900 whole entry): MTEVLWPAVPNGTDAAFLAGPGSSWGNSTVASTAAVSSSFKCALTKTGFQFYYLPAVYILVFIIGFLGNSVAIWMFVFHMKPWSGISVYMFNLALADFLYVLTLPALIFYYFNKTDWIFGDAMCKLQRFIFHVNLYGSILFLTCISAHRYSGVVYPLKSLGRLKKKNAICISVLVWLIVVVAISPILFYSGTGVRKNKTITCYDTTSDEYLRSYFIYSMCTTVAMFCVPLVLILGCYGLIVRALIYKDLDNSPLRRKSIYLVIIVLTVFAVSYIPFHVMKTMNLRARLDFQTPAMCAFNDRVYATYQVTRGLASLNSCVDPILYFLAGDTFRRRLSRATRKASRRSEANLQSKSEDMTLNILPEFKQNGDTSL
Sequence of P2X purinoceptor 4 (Rattus norvegicus) (P51577 whole entry, looked up): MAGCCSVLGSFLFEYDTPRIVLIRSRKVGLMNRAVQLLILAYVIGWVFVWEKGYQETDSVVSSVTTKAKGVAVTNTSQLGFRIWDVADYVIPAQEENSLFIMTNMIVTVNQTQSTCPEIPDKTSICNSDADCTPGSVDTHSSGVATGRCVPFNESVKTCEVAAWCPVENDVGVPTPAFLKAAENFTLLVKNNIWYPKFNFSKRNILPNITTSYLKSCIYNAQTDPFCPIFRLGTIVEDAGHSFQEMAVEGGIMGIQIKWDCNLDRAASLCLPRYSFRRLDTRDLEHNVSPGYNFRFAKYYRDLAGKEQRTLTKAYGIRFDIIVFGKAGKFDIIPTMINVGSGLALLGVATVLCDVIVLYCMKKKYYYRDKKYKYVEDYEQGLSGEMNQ
Sequence of P2X purinoceptor 2 (Rattus norvegicus) (P49653 whole entry, looked up): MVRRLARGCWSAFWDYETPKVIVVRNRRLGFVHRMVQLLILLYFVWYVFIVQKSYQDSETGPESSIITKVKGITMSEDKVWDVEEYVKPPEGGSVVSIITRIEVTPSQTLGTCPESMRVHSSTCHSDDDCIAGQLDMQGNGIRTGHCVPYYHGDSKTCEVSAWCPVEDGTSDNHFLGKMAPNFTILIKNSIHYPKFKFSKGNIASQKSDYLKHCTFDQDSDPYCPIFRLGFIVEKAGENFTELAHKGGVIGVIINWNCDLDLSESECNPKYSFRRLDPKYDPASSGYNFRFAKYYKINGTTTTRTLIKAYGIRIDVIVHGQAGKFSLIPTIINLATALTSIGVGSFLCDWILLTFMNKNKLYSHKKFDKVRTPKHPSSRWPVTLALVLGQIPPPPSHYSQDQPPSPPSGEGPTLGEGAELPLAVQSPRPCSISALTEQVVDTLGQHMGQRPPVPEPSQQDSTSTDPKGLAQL
Sequence of P2X purinoceptor 1 (Rattus norvegicus) (P47824 whole entry, looked up): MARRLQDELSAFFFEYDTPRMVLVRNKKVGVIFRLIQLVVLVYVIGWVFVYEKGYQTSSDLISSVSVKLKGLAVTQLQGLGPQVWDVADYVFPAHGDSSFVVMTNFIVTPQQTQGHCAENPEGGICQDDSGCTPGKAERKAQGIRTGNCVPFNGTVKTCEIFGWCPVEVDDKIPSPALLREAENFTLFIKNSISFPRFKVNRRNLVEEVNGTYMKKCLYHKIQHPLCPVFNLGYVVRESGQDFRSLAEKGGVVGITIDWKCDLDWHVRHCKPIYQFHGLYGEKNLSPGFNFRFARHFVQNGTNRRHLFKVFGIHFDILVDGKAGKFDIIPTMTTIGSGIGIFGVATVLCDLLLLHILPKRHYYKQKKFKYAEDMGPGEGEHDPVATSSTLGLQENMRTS

Consider `CNc1nc(C)nc2c1ncn2[C@H]1C[C@H](OP(=O)(O)O)[C@@H](COP(=O)(O)O)O1`, for which, in experiment [1], the Kb is 77.6 nM. In addition, in experiment [2], the Inhibition turned out to be 100 µM.
As a reminder, the pIC50 is the IC50 on a negative log10 scale, so that one unit is a factor of ten. Low values mean a high IC50, high ones a low IC50. As to `CNc1ncnc2c1ncn2[C@H]1C[C@H](OP(=O)(O)O)[C@@H](COP(=O)(O)O)O1`, in experiment [1], the Kb was 282 nM. In addition, the IA entry in experiment [3] and in experiment [5] was “inactive” throughout. The compound further gave a pIC50 in experiment [4] of 5.94.
